From article PMC3090393, “New Noncovalent Inhibitors of Penicillin-Binding Proteins from Penicillin-Resistant Bacteria” (PLoS ONE, 2011)
≈ marks a conversion by molar mass, not a printed value.

Assays:
[1] = test system: Bacillus subtilis ATCC 6633; test: In-vitro antibacterial activity (MIC, broth microdilution); assay type: cell-based; conditions: ATCC6633
Protocol: (§1) Determination of the antibacterial activities was carried out on microtiter plates, in 200 µL (final volume) of Müeller-Hinton Broth (MHB), following EUCAST (European Committee on Antimicrobial Susceptibility testing)/CLSI (Clinical and Laboratory Standard Institute) recommended procedures, [25]. The compounds were solubilized in MHB, just before use. Inocula were prepared for each strain by resuspending isolated colonies from 18 h cultured plates. Equivalents of 0.5 Mac Farland turbidity standards (approximately 1×10^8 CFU mL^−1) were prepared in saline solution ([…]) and then diluted 200-fold in MBH.

[2] = test system: Citrobacter freundii ATCC 8090; test: as above; assay type: cell-based; conditions: ATCC8090
Protocol: as §1

[3] = test system: Enterococcus faecalis ATCC 29212; test: as above; assay type: cell-based; conditions: ATCC29212
Protocol: as §1

[4] = test system: Enterococcus faecalis ATCC 7937; test: as above; assay type: cell-based; conditions: ATCC7937
Protocol: as §1

[5] = test system: Enterococcus faecium ATCC 19434; test: as above; assay type: cell-based; conditions: ATCC19434
Protocol: as §1

[6] = test system: Enterococcus hirae ATCC 8790; test: as above; assay type: cell-based; conditions: ATCC8790
Protocol: as §1

[7] = test system: Escherichia coli ATCC 8739; test: as above; assay type: cell-based; conditions: ATCC8739
Protocol: as §1

[8] = test system: Klebsiella pneumoniae ATCC 13883; test: as above; assay type: cell-based; conditions: ATCC13883
Protocol: as §1

[9] = test system: Listeria innocua ATCC 33090; test: as above; assay type: cell-based; conditions: ATCC33090
Protocol: as §1

[10] = test system: Listeria monocytogenes ATCC 14780; test: as above; assay type: cell-based; conditions: ATCC14780
Protocol: as §1

[11] = test system: Micrococcus luteus ATCC 9341; test: as above; assay type: cell-based; conditions: ATCC9341
Protocol: as §1

[12] = test system: Proteus mirabilis ATCC 29936; test: as above; assay type: cell-based; conditions: ATCC29936
Protocol: as §1

[13] = test system: Pseudomonas aeruginosa ATCC 27853; test: as above; assay type: cell-based; conditions: ATCC27853
Protocol: as §1

[14] = test system: Staphylococcus aureus ATCC 25923; test: as above; assay type: cell-based; conditions: ATCC25923
Protocol: as §1

[15] = test system: Staphylococcus aureus ATCC 43300 (MRSA); test: as above; assay type: cell-based
Protocol: as §1

[16] = test system: Staphylococcus aureus mp 1 (inducible MRSA); test: as above; assay type: cell-based
Protocol: as §1

[17] = test system: Staphylococcus epidermidis ATCC 12228; test: as above; assay type: cell-based; conditions: ATCC12228
Protocol: as §1

[18] = test system: Streptococcus pneumoniae ATCC 33400; test: as above; assay type: cell-based; conditions: ATCC33400
Protocol: as §1

[19] = test system: Streptococcus pneumoniae ATCC 49619; test: as above; assay type: cell-based; conditions: ATCC49619
Protocol: as §1

[20] = test system: Streptococcus pneumoniae D39; test: as above; assay type: cell-based
Protocol: as §1

PBP2a = target: T1, PBP2a (Staphylococcus aureus, UniProt P07944); test: PBP2a enzymatic inhibition assay (fluorescein-labeled ampicillin, residual penicillin binding activity); assay type: biochemical, Staphylococcus aureus ATCC 43300; conditions: for remaining activity at 1000 µM: 4 h, residual activity of the enzyme at 1 mM inhibitor, 0.01% Triton X-100, mean of three experiments, read-out: PBP2a RA [%]; for IC50: in the presence of 0.01% Triton X-100
T1 construct: made in house
T1 sequence (P07944 whole entry): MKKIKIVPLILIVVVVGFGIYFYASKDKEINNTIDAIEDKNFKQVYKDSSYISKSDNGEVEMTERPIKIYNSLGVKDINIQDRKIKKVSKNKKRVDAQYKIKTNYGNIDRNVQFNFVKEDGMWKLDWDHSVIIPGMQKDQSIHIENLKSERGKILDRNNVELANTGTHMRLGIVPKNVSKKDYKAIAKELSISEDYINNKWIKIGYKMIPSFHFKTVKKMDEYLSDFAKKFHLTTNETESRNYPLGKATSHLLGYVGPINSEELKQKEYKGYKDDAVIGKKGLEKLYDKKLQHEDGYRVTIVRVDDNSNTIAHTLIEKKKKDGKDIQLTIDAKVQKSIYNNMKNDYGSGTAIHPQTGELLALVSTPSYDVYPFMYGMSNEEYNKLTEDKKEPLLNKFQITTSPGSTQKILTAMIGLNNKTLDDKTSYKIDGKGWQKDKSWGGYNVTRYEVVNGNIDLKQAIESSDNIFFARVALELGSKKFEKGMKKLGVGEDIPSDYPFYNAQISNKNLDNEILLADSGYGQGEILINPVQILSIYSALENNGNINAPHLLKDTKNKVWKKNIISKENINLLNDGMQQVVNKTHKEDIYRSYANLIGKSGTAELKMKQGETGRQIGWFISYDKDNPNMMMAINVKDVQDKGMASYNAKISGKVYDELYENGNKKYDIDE
Protocol: (§2) PBP2a from Staphylococcus aureus ATCC 43300 and PBP5fm from Enterococcus faecium D63r were overproduced and purified as described previously, [18].
(§3) Each of the purified PBPs (2.5 µM) were first incubated with 1 mM potential inhibitor in 100 mM phosphate buffer, 0.01% Triton X-100[19], pH 7, for 4 h at 30°C. Then, 25 µM fluorescein-labeled ampicillin[20] was added to detect the residual penicillin binding activity (RA). The samples were further incubated for 30 min at 37°C in a total volume of 20 µL. Denaturation buffer was added (0.1 M Tris/HCl, pH 6.8, containing 25% glycerol, 2% SDS, 20% β-mercaptoethanol and 0.02% bromophenol blue) and the samples were heated to 100°C for 1 min. The samples were then loaded onto a 10% SDS-acrilamide gel (10×7 cm) and electrophoresis was performed for 45 min at 180 V (12 mA). Detection and quantification of the RAs were with Molecular Image FX equipment and Quantity One software (BioRad, Hercules, CA, USA). Three independent experiments were carried out for each inhibitor.

PBP2x 5204 = PBP2x 5204 (Streptococcus pneumoniae, UniProt P59676); test: PBP2x 5204 enzymatic inhibition assay (S2d hydrolysis, DTNB); assay type: biochemical, Streptococcus pneumoniae strain 5204; conditions: for PBP2x5204 RA [%]: 240 min
Sequence of PBP2x 5204 (P59676 49-750): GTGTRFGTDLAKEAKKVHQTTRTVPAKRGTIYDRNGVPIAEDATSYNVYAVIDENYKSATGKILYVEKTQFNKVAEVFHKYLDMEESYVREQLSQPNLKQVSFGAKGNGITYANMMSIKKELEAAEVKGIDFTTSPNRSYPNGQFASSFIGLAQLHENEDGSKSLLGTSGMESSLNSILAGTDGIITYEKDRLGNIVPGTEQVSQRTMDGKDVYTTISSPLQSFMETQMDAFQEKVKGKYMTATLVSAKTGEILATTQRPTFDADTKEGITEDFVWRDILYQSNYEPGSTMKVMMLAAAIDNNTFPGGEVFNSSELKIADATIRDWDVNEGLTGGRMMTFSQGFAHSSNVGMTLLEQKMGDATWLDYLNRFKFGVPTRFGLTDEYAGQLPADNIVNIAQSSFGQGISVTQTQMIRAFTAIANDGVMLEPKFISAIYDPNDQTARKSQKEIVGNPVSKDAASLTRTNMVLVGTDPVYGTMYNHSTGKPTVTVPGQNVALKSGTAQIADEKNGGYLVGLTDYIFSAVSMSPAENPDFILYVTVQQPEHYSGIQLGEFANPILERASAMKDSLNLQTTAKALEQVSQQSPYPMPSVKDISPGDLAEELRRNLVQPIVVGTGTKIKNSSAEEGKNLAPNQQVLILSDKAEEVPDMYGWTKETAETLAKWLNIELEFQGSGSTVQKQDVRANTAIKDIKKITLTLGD
Protocol: PBP2x-5204 from Streptococcus pneumonia and N-benzoyl-D-alanyl-thioglycolate S2d[21], [22] were prepared as previously described. All assays with PBP2x 5204 were carried out in 96-well microtiter plates (Brand, Wertheim, Germany). PBP2x 5204 (0.6 µM) was incubated in the presence of the potential inhibitors in 10 mM sodium phosphate buffer (pH 7.0) containing 70 mM D-alanine and 0.01 mg/mL BSA, for 4 h at 25°C. This preincubation was used to also detect slow binding inhibitors. After the preincubation, the RA of PBP2x 5204 was determined. The initial rate of hydrolysis of 1 mM S2d in the presence of 1 mM DTNB was determined by monitoring the increase in absorbance at 412 nm (DTNB: ε[Δ ε] = […]) using a microplate absorbance reader (Power Wave X, Biotek Instruments, Winooski, U.S.A.). The rate of spontaneous hydrolysis of S2d in the presence of the potential inhibitors was also determined in the absence of PBP2x 5204. All of the assays were carried out in triplicate. The determination of the RA of PBP2x 5204 in the absence of inhibitors was carried out six times on each plate. A test compound was considered as an inhibitor if the RA was <80%. In this case, to reveal false positives, the assays were also carried out under the same conditions in the presence of 0.01% Triton X-100. As described in the literature, promiscuous inhibitors (false positives) are slow binding, noncompetitive inhibitors. To avoid detailed kinetic investigations, it is possible to identify such compounds by carrying out the assays in the presence of Triton X-100[14], [19]. Promiscuous inhibitors show no inhibition in the presence of Triton X-100. The IC50 values in the presence of Triton X-100 were determined if the RAs were <50%. (RA: ∼50%, IC50∼c, c: concentration of compound in the assay; RA >50%, IC50 > c). The RA was measured over a range of concentrations, from which the IC50 values were determined by non-linear regression analysis, using Sigma Plot (Systat software) and fitting the data to the equation y = y0+(a×b)/(b+x)[23].

PBP5fm = PBP5fm (Enterococcus faecium, UniProt Q47759); test: PBP5fm enzymatic inhibition assay (fluorescein-labeled ampicillin, residual penicillin binding activity); assay type: biochemical, Enterococcus faecium D63r; conditions: 4 h; residual activity of the enzyme at 1 mM inhibitor; 0.01% Triton X-100; read-out: PBP5fm RA [%]
Sequence of PBP5fm (Q47759 entry or part of it): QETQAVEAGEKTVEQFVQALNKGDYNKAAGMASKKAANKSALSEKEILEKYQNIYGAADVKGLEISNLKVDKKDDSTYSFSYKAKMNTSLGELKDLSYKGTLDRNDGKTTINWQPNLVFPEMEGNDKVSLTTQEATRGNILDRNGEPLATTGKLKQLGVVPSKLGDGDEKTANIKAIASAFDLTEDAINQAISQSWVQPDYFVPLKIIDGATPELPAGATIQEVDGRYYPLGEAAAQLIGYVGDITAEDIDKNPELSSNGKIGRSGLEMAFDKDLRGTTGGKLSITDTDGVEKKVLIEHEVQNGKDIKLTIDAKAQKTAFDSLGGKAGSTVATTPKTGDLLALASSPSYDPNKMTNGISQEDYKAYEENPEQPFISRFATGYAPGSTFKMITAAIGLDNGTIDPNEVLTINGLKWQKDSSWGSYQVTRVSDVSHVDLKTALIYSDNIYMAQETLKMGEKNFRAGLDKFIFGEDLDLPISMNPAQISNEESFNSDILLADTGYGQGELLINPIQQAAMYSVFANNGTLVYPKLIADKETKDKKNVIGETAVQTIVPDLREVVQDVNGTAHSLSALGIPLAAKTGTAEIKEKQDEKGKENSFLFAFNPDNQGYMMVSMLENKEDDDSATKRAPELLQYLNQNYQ
Protocol: as §2, §3

[21] = residual activity of the enzyme at 1 mM inhibitor

SMILES	MIC [1]	MIC [2]	MIC [3]	MIC [4]	MIC [5]	MIC [6]	MIC [7]	MIC [8]	MIC [9]	MIC [10]	MIC [11]	MIC [12]	MIC [13]	MIC [14]	MIC [15]	MIC [16]	MIC [17]	remaining activity at 1000 µM (PBP2a)	PBP2x5204 RA [%] (PBP2x 5204; [21])	activity at 1000 µM (PBP5fm)	further results
CC1(C)S[C@@H]2[C@H](NC(=O)[C@H](N)c3ccccc3)C(=O)N2[C@H]1C(=O)O [Ampicillin, reference compound]	0.5 µg/mL (≈ 1.43 µM)	128 µg/mL (≈ 366 µM)	2 µg/mL (≈ 5.72 µM)	2 µg/mL (≈ 5.72 µM)	64 µg/mL (≈ 183 µM)	64 µg/mL (≈ 183 µM)	4 µg/mL (≈ 11.4 µM)	256 µg/mL (≈ 733 µM)	0.25 µg/mL (≈ 0.715 µM)	0.5 µg/mL (≈ 1.43 µM)	0.5 µg/mL (≈ 1.43 µM)	2 µg/mL (≈ 5.72 µM)	> 1020 µg/mL	0.25 µg/mL (≈ 0.715 µM)	1020 µg/mL (≈ 2930 µM)	1020 µg/mL (≈ 2930 µM)	16 µg/mL (≈ 45.8 µM)	–	–	–	MIC [18]: 0.03 µg/mL (≈ 0.0859 µM); MIC [19]: 0.06 µg/mL (≈ 0.172 µM); MIC [20]: 0.06 µg/mL (≈ 0.172 µM)
O=S(=O)(Nc1ccc(O)cc1)c1cccc2cccnc12 [compound 3, N-(4-Hydroxyphenyl)quinoline-8-sulfonamide]	–	–	–	–	–	–	–	–	–	–	–	–	–	–	–	–	–	67%	80%	65%	–
CCOc1ccc(NS(=O)(=O)c2ccc(C(=O)O)cc2)cc1 [compound 4, 4-(N-(4-Ethoxyphenyl)sulfamoyl)benzoic acid]	–	–	–	–	–	–	–	–	–	–	–	–	–	–	–	–	–	83%	101%	100%	–
CCOc1ccc(S(=O)(=O)Nc2ccc(C(=O)O)cc2)cc1 [compound 5, 4-(4-Ethoxyphenylsulfonamido)benzoic acid]	–	–	–	–	–	–	–	–	–	–	–	–	–	–	–	–	–	86%	81%	73%	–
CCCOc1ccc(C(=O)Nc2ccc(Br)cc2C(=O)O)cc1 [compound 6, 5-Bromo-2-(4-propoxybenzamido)benzoic acid]	128 µg/mL (≈ 338 µM)	> 512 µg/mL	32 µg/mL (≈ 84.6 µM)	64 µg/mL (≈ 169 µM)	256 µg/mL (≈ 677 µM)	32 µg/mL (≈ 84.6 µM)	> 512 µg/mL	> 512 µg/mL	64 µg/mL (≈ 169 µM)	64 µg/mL (≈ 169 µM)	32 µg/mL (≈ 84.6 µM)	> 512 µg/mL	> 512 µg/mL	16 µg/mL (≈ 42.3 µM)	128 µg/mL (≈ 338 µM)	128 µg/mL (≈ 338 µM)	16 µg/mL (≈ 42.3 µM)	0%	41%	68%	IC50 (PBP2a): 210 µM; MIC [18]: 64 µg/mL (≈ 169 µM); MIC [19]: 32 µg/mL (≈ 84.6 µM); MIC [20]: 16 µg/mL (≈ 42.3 µM)
CCCOc1ccc(C(=O)Nc2ccc(O)cc2C(=O)O)cc1 [compound 7, 5-Hydroxy-2-(4-propoxybenzamido)benzoic acid]	–	–	–	–	–	–	–	–	–	–	–	–	–	–	–	–	–	74%	65%	72%	–
CCCOc1ccc(C(=O)Nc2ccccc2C(=O)O)cc1 [compound 8, 2-(4-Propoxybenzamido)benzoic acid]	–	–	–	–	–	–	–	–	–	–	–	–	–	–	–	–	–	60%	103%	74%	–
CCCOc1cccc(C(=O)Nc2ccc(Br)cc2C(=O)O)c1 [compound 9, 5-Bromo-2-(3-propoxybenzamido)benzoic acid]	32 µg/mL (≈ 84.6 µM)	> 512 µg/mL	64 µg/mL (≈ 169 µM)	64 µg/mL (≈ 169 µM)	16 µg/mL (≈ 42.3 µM)	16 µg/mL (≈ 42.3 µM)	> 512 µg/mL	> 512 µg/mL	16 µg/mL (≈ 42.3 µM)	16 µg/mL (≈ 42.3 µM)	16 µg/mL (≈ 42.3 µM)	> 512 µg/mL	> 512 µg/mL	32 µg/mL (≈ 84.6 µM)	32 µg/mL (≈ 84.6 µM)	32 µg/mL (≈ 84.6 µM)	8 µg/mL (≈ 21.2 µM)	0%	–	72%	IC50 (PBP2a): 230 µM; IC50 (PBP2x 5204; read-out: PBP2x5204 IC50, in the presence of 0.01% Triton X-100): 155 µM; PBP2x5204 RA [%] (PBP2x 5204; residual activity of the enzyme at 500 µM inhibitor): 8%; MIC [18]: 1 µg/mL (≈ 2.64 µM); MIC [19]: 1 µg/mL (≈ 2.64 µM); MIC [20]: 1 µg/mL (≈ 2.64 µM)
CCCOc1cccc(C(=O)Nc2ccc(O)cc2C(=O)O)c1 [compound 11, 5-Hydroxy-2-(3-propoxybenzamido)benzoic acid]	–	–	–	–	–	–	–	–	–	–	–	–	–	–	–	–	–	70%	118%	61%	–
